A short description of data set [1]: Stability to oxidation by air during storage. Format: physicochemical. How it is done: A pyrazoline scaffold was prepared by the condensation of compound of formula VI of Example 1 with methylhydrazine in the presence of L-InCl3. […] The stereochemistry of the major isomer was confirmed as having an anti-configuration by the strong interaction between […] in the diethylamino chain and by the absence of any NOESY correlation between H4 (3.56 ppm) and H5 (3.98 ppm). […]

Another data set concerns the target T1, UII receptor (Homo sapiens, UniProt Q9UKP6).
T1 construct: expressed in transfected cells; host or cells: NIH3T3 cells, receptor plasmid in PSI Mammalian Expression Vector (PROMEGA)
T1 sequence (Q9UKP6 1-389): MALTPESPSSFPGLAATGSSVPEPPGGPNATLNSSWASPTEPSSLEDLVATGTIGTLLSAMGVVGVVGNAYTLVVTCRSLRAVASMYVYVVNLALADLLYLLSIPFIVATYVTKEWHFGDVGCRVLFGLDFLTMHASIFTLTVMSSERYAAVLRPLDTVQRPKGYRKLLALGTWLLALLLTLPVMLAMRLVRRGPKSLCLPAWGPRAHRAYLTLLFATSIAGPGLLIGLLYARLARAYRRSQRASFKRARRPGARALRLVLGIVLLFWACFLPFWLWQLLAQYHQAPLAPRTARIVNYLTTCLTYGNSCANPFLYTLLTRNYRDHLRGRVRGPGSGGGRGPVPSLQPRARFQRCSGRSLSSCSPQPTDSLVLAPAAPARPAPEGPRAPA
Kind of data set: R-SAT functional mammalian cell-based agonist assay, UII receptor. The settings on record: for selectivity UII versus SST5 receptor (in words): UII and SST5 receptors; for UII Eff.: agonist efficacy; for UII Eff. / UII pEC50 / EC50: transfected NIH3T3 cells; for UII pEC50 / EC50: agonist; for agonist activity at the UII receptor (in words): potency similar to AC-7954; for EC50: read-out: UII pEC50 (converted). How it is done:
(§1) The compounds I to VI were tested as agonist at the UII and SST5 receptors in the functional mammalian cell-based assay R-SAT, described in U.S. Pat. Nos. 5,707,798, 5,912,132, and 5,955,281.
(§2) R-SAT assays were performed using NIH3T3 cells grown in tissue culture treated rollerbottles to 40-50% confluence. Cells were transfected for 12-16 hours with plasmid DNAs using SUPERFECT (QIAGEN) as per manufacture's protocols. R-SAT's were generally performed with 10 μg/rollerbottle of receptor and 50 μg/rollerbottle of beta-galactosidase plasmid DNA. All receptor and G-protein constructs used were in the PSI Mammalian Expression Vector (PROMEGA). The transfected cells were then trypsinized and frozen in DMEM containing 10% DMSO. Frozen cells were later thawed, plated at 10,000-40,000 cells per well of a 96½ area plate that contained drug. Cells were then grown in a humidified atmosphere with 5% ambient CO2 for five days. Media was then removed from the plates and marker gene activity was measured by the addition of the beta-galactosidase substrate ONPG (in PBS with 5% NP-40). The resulting colorimetric reaction was measured in a spectrophotometric plate reader (Titertek Inc.) at […].

In another data set the target is T2, SST5 receptor (Homo sapiens, UniProt P35346).
T2 construct: expressed in transfected cells; host or cells: NIH3T3 cells, receptor plasmid in PSI Mammalian Expression Vector (PROMEGA)
T2 sequence (P35346 whole entry): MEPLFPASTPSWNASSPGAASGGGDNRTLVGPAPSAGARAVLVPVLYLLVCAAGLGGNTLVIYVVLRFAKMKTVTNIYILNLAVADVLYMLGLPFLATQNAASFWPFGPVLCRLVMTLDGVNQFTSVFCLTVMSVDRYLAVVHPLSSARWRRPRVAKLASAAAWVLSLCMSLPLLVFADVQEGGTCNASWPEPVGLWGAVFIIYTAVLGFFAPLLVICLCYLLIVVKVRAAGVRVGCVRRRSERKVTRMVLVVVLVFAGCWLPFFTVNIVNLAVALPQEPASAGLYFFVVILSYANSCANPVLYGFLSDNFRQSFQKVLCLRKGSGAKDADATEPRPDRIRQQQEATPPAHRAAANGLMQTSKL
Kind of data set: R-SAT functional mammalian cell-based agonist assay, SST5 receptor. The settings on record: transfected NIH3T3 cells; for SST5 Eff.: agonist efficacy; for EC50: agonist, read-out: SST5 pEC50 (converted). How it is done: as §1, §2

As for `CCN(CC)CCC1C(c2ccccc2)=NN(C)C1c1ccc(Cl)cc1` (mixture of isomers) [III, anti/syn-5-(4-Chloro-phenyl)-4-(2-diethylamino-ethyl)-1-methyl-3-phenyl-4,5-dihydro-1H-pyrazole], the “stability of the pyrazoline core to oxidation by air” value in data set [1] is “stable to oxidation by air during storage”. Moreover, at UII receptor, the “selectivity UII versus SST5 receptor (in words)” value is on record as “selective UII agonists”, the “UII Eff.” value stood at 31, the “UII pEC50” value is given as 5.4 and the “agonist activity at the UII receptor (in words)” value (shortened to “agonist activity”) is given as “partial to full agonists”.

`CCN(CC)CCC1=C(c2ccccc2)NC(=O)N(C)C1c1ccc(Cl)cc1` (stereo not drawn) [I]: at UII receptor, the “selectivity UII versus SST5 receptor (in words)” value was “selective UII agonists”, the “UII Eff.” value worked out at 68, the EC50 is 6.31 µM and the “agonist activity” value was “partial to full agonists”.

With `CCN(CC)CCC(=Cc1ccc(Cl)cc1)C(=O)c1ccccc1` (mixture of isomers) [Starting material], on SST5 receptor, the “SST5 Eff.” value amounted to 41 and the EC50 was 6.31 µM. For the same compound, at UII receptor, the “selectivity UII versus SST5 receptor (in words)” value was “activity at both the UII and SST5 receptors”; the “UII Eff.” value is listed as 35; the EC50 is 1.58 µM; the “agonist activity” value is “partial to full agonists”.

Take `CCN(CC)CC[C@@H]1C(c2ccccc2)=Nc2ccccc2S[C@H]1c1ccc(Cl)cc1` (relative stereo) [V, anti-2-(4-Chloro-phenyl)-3-(2-diethylamino-ethyl)-4-phenyl-2,3-dihydro-benzo-[b]-[1,4]-thiazepine]: on SST5 receptor, the “SST5 Eff.” value turned out to be 60 and the EC50 is 10 µM. Moreover, at UII receptor, the “selectivity UII versus SST5 receptor (in words)” value is “activity at both the UII and SST5 receptors”; the “UII Eff.” value turned out to be 92; the EC50 is 5.01 µM; the “agonist activity” value is reported as “partial to full agonists”.

Usually melting point stands for the temperature of the solid-liquid transition. Compound `CCN(CC)CCc1c(-c2ccccc2)nc(-c2ccccc2)nc1-c1ccc(Cl)cc1` [IV, 4-(4-Chloro-phenyl)-5-(2-diethylamino-ethyl)-2,6-diphenyl-pyrimidine] showed a melting point of 90.5 to 92.3 °C.

`CN(C)CCC1(c2ccc(Cl)cc2)Cc2ccccc2C(=O)O1` (stereo not drawn) [AC-7954, reference compound]: at UII receptor, the “UII Eff.” value is reported as 120 and the “UII pEC50” value is listed as 5.7.

The record behind these values is patent US20100029612A1, “2-Aminoethyl Substituted Pyrimidin-2-Ones Cyclopropanes, Pyrazolines, Pyrimidines and Benzothiazepines and Their Uses as Urotensin II and Somatostatin 5 Receptor Ligands” (priority 2003, published 2010).
